Series [1] in a line: In vitro hepatocyte assay: prodrug conversion to parent compound. The format is in vitro ADME, human. The protocol: Materials. Cryopreserved human hepatocytes and Cryopreserved Hepatocytes Recovery Medium (CHRM™) were purchased from Life Technologies (Carlsbad, Calif.). Gibco™ Leibovitz's L-15 Medium was purchased from Fisher Scientific (Waltham, Mass.).
Methods. 10 mM stock solutions containing Compound 20 and Compound 13 were prepared in DMSO. Equal volumes of the two 10 mM stock solutions were mixed to form a combination stock solution containing Compound 20 and Compound 13 in concentrations of 5 mM each. The 5 mM combination stock solution was diluted to a concentration of 50 μM of each compound in DMSO (“50 μM combination stock”). Cryopreserved human hepatocytes were thawed in CHRM™ medium and prepared as a suspension in incubation medium (L-15 Medium with supplements containing glucose, HEPES buffer and NaHCO3), with the final cell concentration of 0.625 million cells/mL. In a 48 well plate, 1 μL of the 50 μM combination stock and then 199 μL of hepatocyte suspension (0.625 million cells/mL) were added to each well. The plate was covered and incubated at 37° C. in an incubator with gentle shaking (50 rpm). The reactions were quenched at 0, 0.25, 0.5, 1 and 2 hours by adding 200 μL of ice-cold quench solution (ACN:MeOH:0.1% aqueous formic acid, 2:2:1) containing internal standard (n=3 per time point). […] LC-MS/MS analysis was conducted using a Phenomenex Luna C8 column (3 micron, 2 mm diameter×30 mm long, at room temperature) eluted with a gradient consisting of mobile phases of 0.1% formic acid in water and 0.1% formic acid in acetonitrile at a total flow rate of 0.6 mL/min and a total run time of 4.5 minutes. The analytes were detected by MS/MS with Electrospray Ionization (ESI) in the mode of multiple reaction monitoring (MRM). The injection volume was 10 μL.

The next series has as its target T1, human NaV 1.8 (Homo sapiens, UniProt Q9Y5Y9).
T1 construct: expressed in transfected cells; host or cells: HEK cells, grown under blasticidin selection; KIR2.1 BacMam virus added before seeding
Put plainly: E-VIPR assay for NaV inhibition. The format is cell-based. The conditions noted are these: HEK cells expressing human NaV 1.8, E-VIPR. The source says:
Sodium ion channels are voltage-dependent proteins that can be activated by inducing membrane voltage changes by applying electric fields. […] The instrument comprises a microtiter plate handler, an optical system for exciting the coumarin dye while simultaneously recording the coumarin and oxonol emissions, a waveform generator, a current- or voltage-controlled amplifier, and parallel electrode pairs that are inserted into assay plate wells. Under integrated computer control, this instrument passes user-programmed electrical stimulus protocols to cells within the wells of the microtiter plate.
The solution was made by adding 10% Pluronic F127 stock equal to combined volumes of CC2-DMPE and DiSBAC6(3).
Then 25 μL per well from compound plate was transferred to each cell plate.
A pre-stimulus recording was performed for 0.5 seconds to obtain the un-stimulated intensities baseline. The stimulatory waveform was followed by 0.5 seconds of post-stimulation recording to examine the relaxation to the resting state.

The structures appear in SMILES notation. Where only a bound is given, the exact number is not on record here.

T1 sequence (Q9Y5Y9 whole entry): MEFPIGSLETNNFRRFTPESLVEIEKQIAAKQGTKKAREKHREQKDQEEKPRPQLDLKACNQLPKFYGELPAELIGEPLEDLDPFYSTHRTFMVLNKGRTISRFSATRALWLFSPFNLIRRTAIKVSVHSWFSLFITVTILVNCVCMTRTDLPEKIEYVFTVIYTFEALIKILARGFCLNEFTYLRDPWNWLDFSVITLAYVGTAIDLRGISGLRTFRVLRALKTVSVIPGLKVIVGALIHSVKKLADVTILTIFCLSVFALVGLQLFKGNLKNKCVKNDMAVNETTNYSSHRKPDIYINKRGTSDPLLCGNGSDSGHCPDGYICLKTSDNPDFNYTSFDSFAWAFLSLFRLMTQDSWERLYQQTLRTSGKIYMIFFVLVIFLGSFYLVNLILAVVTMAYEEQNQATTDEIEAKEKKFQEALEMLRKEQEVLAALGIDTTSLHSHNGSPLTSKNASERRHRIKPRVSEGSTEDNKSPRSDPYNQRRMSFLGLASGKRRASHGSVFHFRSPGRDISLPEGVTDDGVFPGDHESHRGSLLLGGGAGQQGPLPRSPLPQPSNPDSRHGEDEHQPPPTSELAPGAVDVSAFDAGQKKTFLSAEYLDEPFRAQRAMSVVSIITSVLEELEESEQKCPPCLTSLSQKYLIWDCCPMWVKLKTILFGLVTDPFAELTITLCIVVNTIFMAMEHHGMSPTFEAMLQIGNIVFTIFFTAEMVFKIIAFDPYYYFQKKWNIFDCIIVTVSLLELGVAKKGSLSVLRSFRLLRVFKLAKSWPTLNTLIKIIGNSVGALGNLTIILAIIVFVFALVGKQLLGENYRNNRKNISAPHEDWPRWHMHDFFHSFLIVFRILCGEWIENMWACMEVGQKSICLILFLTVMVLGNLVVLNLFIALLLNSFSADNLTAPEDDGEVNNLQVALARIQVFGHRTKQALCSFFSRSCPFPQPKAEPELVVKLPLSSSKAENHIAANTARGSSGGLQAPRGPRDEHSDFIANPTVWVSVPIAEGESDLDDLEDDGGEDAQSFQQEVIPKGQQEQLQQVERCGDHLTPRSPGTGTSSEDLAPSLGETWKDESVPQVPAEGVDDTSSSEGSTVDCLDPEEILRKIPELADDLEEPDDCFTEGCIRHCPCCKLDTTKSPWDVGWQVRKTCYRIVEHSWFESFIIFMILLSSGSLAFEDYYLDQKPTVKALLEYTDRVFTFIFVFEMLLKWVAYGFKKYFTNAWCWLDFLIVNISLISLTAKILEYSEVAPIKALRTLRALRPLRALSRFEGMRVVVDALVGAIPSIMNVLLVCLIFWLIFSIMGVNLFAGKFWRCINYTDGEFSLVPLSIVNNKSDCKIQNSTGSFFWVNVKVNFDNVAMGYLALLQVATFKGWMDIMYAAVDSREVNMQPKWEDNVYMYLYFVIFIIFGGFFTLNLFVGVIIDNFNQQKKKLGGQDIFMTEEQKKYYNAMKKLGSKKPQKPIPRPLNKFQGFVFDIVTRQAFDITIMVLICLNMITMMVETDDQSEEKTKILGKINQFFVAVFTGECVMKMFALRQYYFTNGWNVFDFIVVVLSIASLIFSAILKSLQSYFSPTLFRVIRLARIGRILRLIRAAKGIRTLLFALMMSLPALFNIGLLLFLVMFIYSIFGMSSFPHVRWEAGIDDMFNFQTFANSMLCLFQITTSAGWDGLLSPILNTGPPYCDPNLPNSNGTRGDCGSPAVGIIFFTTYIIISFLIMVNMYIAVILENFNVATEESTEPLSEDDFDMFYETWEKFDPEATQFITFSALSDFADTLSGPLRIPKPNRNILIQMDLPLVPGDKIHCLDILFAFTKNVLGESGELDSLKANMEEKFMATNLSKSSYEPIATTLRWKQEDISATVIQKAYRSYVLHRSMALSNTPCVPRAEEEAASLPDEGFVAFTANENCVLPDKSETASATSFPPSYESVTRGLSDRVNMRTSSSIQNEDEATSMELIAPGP

In the case of `[2H]C([2H])([2H])c1cc(F)ccc1Oc1cc(C(F)(F)F)ccc1C(=O)Nc1ccn(COP(=O)(O)O)c(=O)c1` [Compound 13, (4-(2-(4-fluoro-2-(methyl-d3)phenoxy)-4-(trifluoromethyl)benzamido)-2-oxopyridin-1(2H)-yl)methyl dihydrogen phosphate], in series [1] (cryopreserved human hepatocytes in suspension, cryopreserved human hepatocytes 0.625 million cells/mL, 37° C., Compounds 20 and 13 co-incubated, read-out: t1/2 in human hepatocytes), the half-life at 0.25 µM was < 30 min. In addition, the “conversion of prodrug to parent compound” value in series [1] (human hepatocytes, LC-MS/MS, Compound 20 to Compound 10, Compound 13 to Compound 7) is given as “fast conversion”. In addition, the “% remaining” value is recorded as 100% in series [1] (human hepatocytes, time 0 hr); 73.8% in series [1] (human hepatocytes, time 0.25 hr); 33.2% in series [1] (human hepatocytes, time 0.5 hr); 11.1% in series [1] (human hepatocytes, time 1 hr); 11.8% in series [1] (human hepatocytes, time 2 hr). In addition, the IC50 on human NaV 1.8 (11 point dose response, top dose 3 μM, read-out: Nav1.8 IC50) was determined as 1200 nM. The “Nav1.8 Max % Activity” value on human NaV 1.8 (normalised to positive control 25 μM) worked out at 99%.
